According to patent US12049615B2, “Systems and methods for electronically and optically monitoring biological samples” (Agilent Technologies, Inc., priority 2020, dated 2024):
“Also recorded” adds a separate entry of the source. Where a SMILES comes first, the peptide text is derived from it. The star is where a group is joined. Cbz = O=C(OCc1ccccc1)*

Columns and labels:
[1] = tested on: A549-Blue cells; experiment: Live cell imaging (blue nuclei, % confluence, caspase 3, annexin V) of drug-treated cells; type: cell-based; conditions: for total number of blue nuclei: four highest concentrations (MG132 1.9, 5.5, 16.7, 50 μm; staurosporine 0.125-1 μm, over the subsequent 60 hours)
Procedure: (§1) Cell maintenance and assays were conducted at 37° C./5% CO2 in F-12K media (ATCC; catalog number 30-2004) containing 10% heat-inactivated FBS (Corning, catalog number 35016CV). While impedance was measured every 15 minutes, images were acquired once per hour. In each well, four fields of view were captured for each channel (brightfield, red, green, and blue). Exposure times were as follows: red (300 ms), green (300 ms), and blue (80 ms). The A549-Blue cell line, which stably expresses nuclear-localized blue fluorescent protein (BFP), was produced by transducing A549 cells (ATCC; catalog number CCL-185) with Agilent eLenti Blue (p/n 8711012) at a multiplicity of infection of 1. From day 2 to day 11 postinfection, 1 μg/mL puromycin was included in the growth medium to select for transductants. For real-time visualization of activated caspase 3, Agilent eCaspase 3 NucView 488 (p/n 8711005) was included in growth medium at a concentration of 5 μm. For real-time visualization of translocated phosphatidylserine, Agilent eAnnexin V Red (p/n 8711007) was included in growth medium at a concentration of 0.25 μg/mL. Agilent E-Plate VIEW microplates (p/n 00300601030) were also used. MG132 (Tocris; catalog number 1748/5) and staurosporine (Calbiochem; catalog number 569396) stocks were dissolved in DMSO.
Although A549-Blue cells already cover most of the well bottom by the 26-hour time point, in the absence of drug, they continue proliferating for another 50 hours, packing cells together at higher density (FIG. 12A). Consistent with this, the impedance signal plateaus at roughly 30 hours while the total number of blue nuclei continues to increase until ˜80 hours (FIG. 12A). Blue nuclei count is Obtained by an image processing algorithm to count the number of blue objects in the blue-fluorescent image. Each blue nuclei nucleus corresponds to an A549 cell as it was transduced to expresses nuclear-localized blue fluorescent protein. As such the number of blue nuclei in a well correspond to the number of viable A549-blue cells present in the well. […] Although, over time, these nuclei shrink in size and begin clustering together, they largely remain intact, explaining why the number of blue nuclei stays fairly constant in FIG. 12C. The above coupling of impedance with imaging clearly provides a more complete and nuanced understanding of drug-mediated A549 cell killing than would be possible using either technique alone. Moving beyond simple cell counts, we next probed the kinetics of biochemical phenomena that are specific to the apoptotic killing pathway.
Along with impedance and blue nuclei counts, the induction of apoptosis by MG132 was also tracked by percent cellular confluence, caspase 3 activation (causing cells to fluoresce green), and phosphatidylserine translocation (causing cells to fluoresce red). […] The bold white arrows in the panels for the 20- and 40-hour time points highlight large membrane blebs that contain phosphatidylserine in their outer leaflet.
Next, the continuous response of A549-Blue cells to MG132 was plotted using each of the image-based readouts. Blue nuclei counts (FIG. 14A) (FIG. 14A) display a dependency on drug concentration that closely reflects the impedance responses seen in (FIG. 11A), Despite the extensive apoptotic response, throughout the course of this assay the % cellular confluence never drops below 50% (FIG. 14B), where the cell confluence number is derived from bright field images through image processing algorithms. This is consistent with the fact that, unlike in vivo contexts, where apoptotic cells and their debris are removed through phagocytosis, in vitro, a large percentage of apoptotic cells continue to occupy the well bottom (FIG. 12B). […] Considering the number of cells that were seeded, their rate of growth, and the percentage of cells that display apoptotic markers (FIG. 13), the output numbers in FIGS. 14A-C are consistent with expectations. […]

[2] = tested on: A549-Blue cells; experiment: Real-time cell-substrate impedance monitoring of drug-induced apoptosis; type: cell-based; conditions: for change of impedance signal after drug addition: addition at the 25-hour time point, time- and dose-dependent
Procedure: as §1
A549-Blue cells (described above) were seeded into an E-PATE VIEW at a density of 10,000 cells/well. As the cells proliferate over the first day, they occupy an expanding surface area on the biosensor array, causing the impedance signal to rise steadily (FIG. 11A and FIG. 11B). If left untreated, the cells grow to confluence, saturating the biosensor array and giving a plateaued impedance signal. […] The kinetics of these drug-induced responses, and the overall shape of the impedance traces, are distinct for each compound. […] Although MG132 and staurosporine both induce apoptosis, they elicit distinct cellular behaviors en route to cell death, which becomes strikingly clear when real-time impedance is multiplexed with live cell imaging.

[3] = tested on: A549-Blue cells; experiment: EC50 from dose response curves of impedance and image-based readouts (area under the curve); conditions: area under the curve from drug addition to 60 hours after; four readouts (normalized cell index, green cell number, red cell number, blue nuclei number); four-parameter logistic fit
Procedure: FIG. 16 provides a table and graphs showing the use of dose response curves to calculate EC50. Using real-time impedance (as represented by normalized cell index) data (FIG. 11A) and live cell imaging (green cell number, red cell number and blue nuclei number) data (FIGS. 14A-C), area under the curve was calculated, and is plotted here as a function of MG132 concentration. Data were fit to a four-parameter logistic equation to determine the EC50.
Using the impedance and image-based readouts presented in Examples II-IV, the EC50 for MG132 was calculated. The area under the curve, spanning from the time of drug addition to 60 hours after drug addition, was plotted as a function of MG132 concentration to yield the dose response curves seen in FIG. 16. The quality of the fitting for the four different readouts is quite good, with R2 values ranging from 0.96 to 0.98. The calculated EC50 values range from 0.86 to 3.0 μm, which is consistent with values reported in the literature. See Han, Y. H. et al. The Effect of MG132, a Proteasome Inhibitor on HeLa Cells in Relation to Cell Growth, Reactive Oxygen Species and GSH. Oncol. Rep. 2009, 22(1), 215-21.

Row | Structure (SMILES) | number of caspase 3-activated cells exceeds number of phosphatidylserine translocated cells by ([1]; 50 μM MG132, 40 hours following the first 20 hours of drug treatment) | time at which the number of blue nuclei begins to decrease ([1]; after drug addition, 50 μM MG132 (FIG. 15), same time caspase 3 activation and phosphatidylserine translocation become detectable) [h] | number of caspase 3 positive (fluorescence green) objects ([1]; dependent on MG132 concentration (FIG. 14C)) | number of annexin V positive (fluorescent red) objects ([1]; dependent on MG132 concentration (FIG. 14D)) | total number of blue nuclei [1] | change of impedance signal after drug addition [2] | impedance signal at high concentrations ([2]; high concentrations of MG132 (FIG. 11A)) | EC50 [3] [nM] | cell morphology by live cell imaging ([1]; one hour after staurosporine addition) | impedance response at the four highest concentrations ([2]; staurosporine 0.125, 0.250, 0.500, and 1 μm)
1 | CC(C)C[C@@H](C=O)NC(=O)[C@H](CC(C)C)NC(=O)[C@H](CC(C)C)NC(=O)OCc1ccccc1 [MG132] (Cbz-Leu-Leu-Leu-aldehyde) | approximately 20% | ~10 | increase over time | increase over time | decreases over time | marked decrease | drop to zero; also recorded: dropped to zero | 860 to 3000 | – | –
2 | CN[C@@H]1C[C@H]2O[C@@](C)([C@@H]1OC)n1c3ccccc3c3c4c(c5c6ccccc6n2c5c31)C(=O)NC4 [staurosporine] | – | – | – | – | modest impact | marked decrease | – | – | shrunk so severely that their cytoplasm is barely visible; also recorded: massive cytoplasmic shrinkage | plummet within the first few minutes
